Results taken from patent US11535611B2, “Pyrazolo[3,4-B]pyridines and imidazo[1,5-B]pyridazines as PDE1 inhibitors” (H. Lundbeck A/S, priority 2017, dated 2022).
pIC50: −log10 of the molar value.

What was measured:
Format in all cases: biochemical
PDE1A = PDE1A (Homo sapiens (Human), UniProt P54750); assay: PDE1 inhibition assay, PDE1A; settings: for pIC50: 15 nM tritium labelled cAMP, 1 hr at room temperature, SPA beads; for inhibition at 10 µM: @ 10 μM compound
Description: (§1) PDE1A, PDE1B and PDE1C assays were performed as follows: the assays were performed in 60 μL samples containing a fixed amount of the PDE1 enzyme (sufficient to convert 20-25% of the cyclic nucleotide substrate), a buffer (50 mM HEPES (4-(2-hydroxyethyl)-1-piperazineethanesulfonic acid) pH 7.6; 10 mM MgCl2; 0.02% Tween20), 0.1 mg/ml BSA (bovine serum albumin), 15 nM tritium labelled cAMP and varying amounts of inhibitors. Reactions were initiated by addition of the cyclic nucleotide substrate, and reactions were allowed to proceed for 1 hr at room temperature before being terminated through mixing with 20 μL (0.2 mg) yttrium silicate SPA beads (PerkinElmer). The beads were allowed to settle for 1 hour in the dark before the plates were counted in a Wallac 1450 Microbeta counter. The measured signals were converted to activity relative to an uninhibited control (100%) and IC50 values were calculated using XIFit (model 205, IDBS).

PDE1C = PDE1C (Homo sapiens (Human), UniProt Q14123); assay: PDE1 inhibition assay, PDE1C; settings: for inhibition at 10 µM: @ 10 μM compound, read-out: PDE1 C, % inhibition @ 10 μM; for pIC50: 15 nM tritium labelled cAMP, 1 hr at room temperature, SPA beads, read-out: PDE1 C, IC50
Description: as §1

PDE1B = PDE1B (Homo sapiens (Human), UniProt Q01064); assay: PDE1 inhibition assay, PDE1B; settings: for pIC50: 15 nM tritium labelled cAMP, 1 hr at room temperature, SPA beads, read-out: PDE1 B, IC50
Description: as §1

Sequence of PDE1A (P54750 whole entry): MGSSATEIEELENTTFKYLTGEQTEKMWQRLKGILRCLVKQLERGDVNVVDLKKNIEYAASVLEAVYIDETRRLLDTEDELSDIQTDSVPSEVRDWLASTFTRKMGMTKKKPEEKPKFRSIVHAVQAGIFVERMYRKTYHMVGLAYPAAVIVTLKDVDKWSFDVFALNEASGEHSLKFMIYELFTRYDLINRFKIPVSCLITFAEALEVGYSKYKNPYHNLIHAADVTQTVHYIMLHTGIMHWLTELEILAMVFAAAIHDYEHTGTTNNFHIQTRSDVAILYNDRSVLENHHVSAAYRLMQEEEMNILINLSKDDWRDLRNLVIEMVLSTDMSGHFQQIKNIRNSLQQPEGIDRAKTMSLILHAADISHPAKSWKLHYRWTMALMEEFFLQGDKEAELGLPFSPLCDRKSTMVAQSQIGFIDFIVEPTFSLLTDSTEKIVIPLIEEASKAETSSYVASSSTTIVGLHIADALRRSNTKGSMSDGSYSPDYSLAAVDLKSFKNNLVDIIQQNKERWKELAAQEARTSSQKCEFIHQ
Sequence of PDE1B (Q01064 whole entry): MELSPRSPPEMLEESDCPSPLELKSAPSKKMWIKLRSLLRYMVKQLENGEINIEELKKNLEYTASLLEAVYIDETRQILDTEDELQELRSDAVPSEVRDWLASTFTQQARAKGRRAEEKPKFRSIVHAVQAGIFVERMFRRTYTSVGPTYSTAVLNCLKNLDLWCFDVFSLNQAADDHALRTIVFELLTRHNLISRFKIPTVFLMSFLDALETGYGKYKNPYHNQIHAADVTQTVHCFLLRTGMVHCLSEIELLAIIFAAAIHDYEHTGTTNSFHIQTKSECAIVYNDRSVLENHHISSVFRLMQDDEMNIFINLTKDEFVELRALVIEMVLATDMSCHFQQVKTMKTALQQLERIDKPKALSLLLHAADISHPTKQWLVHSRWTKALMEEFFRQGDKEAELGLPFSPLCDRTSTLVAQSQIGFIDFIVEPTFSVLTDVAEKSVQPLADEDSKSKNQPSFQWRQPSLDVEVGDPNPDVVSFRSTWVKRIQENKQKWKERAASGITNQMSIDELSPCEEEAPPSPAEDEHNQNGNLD
Sequence of PDE1C (Q14123 whole entry): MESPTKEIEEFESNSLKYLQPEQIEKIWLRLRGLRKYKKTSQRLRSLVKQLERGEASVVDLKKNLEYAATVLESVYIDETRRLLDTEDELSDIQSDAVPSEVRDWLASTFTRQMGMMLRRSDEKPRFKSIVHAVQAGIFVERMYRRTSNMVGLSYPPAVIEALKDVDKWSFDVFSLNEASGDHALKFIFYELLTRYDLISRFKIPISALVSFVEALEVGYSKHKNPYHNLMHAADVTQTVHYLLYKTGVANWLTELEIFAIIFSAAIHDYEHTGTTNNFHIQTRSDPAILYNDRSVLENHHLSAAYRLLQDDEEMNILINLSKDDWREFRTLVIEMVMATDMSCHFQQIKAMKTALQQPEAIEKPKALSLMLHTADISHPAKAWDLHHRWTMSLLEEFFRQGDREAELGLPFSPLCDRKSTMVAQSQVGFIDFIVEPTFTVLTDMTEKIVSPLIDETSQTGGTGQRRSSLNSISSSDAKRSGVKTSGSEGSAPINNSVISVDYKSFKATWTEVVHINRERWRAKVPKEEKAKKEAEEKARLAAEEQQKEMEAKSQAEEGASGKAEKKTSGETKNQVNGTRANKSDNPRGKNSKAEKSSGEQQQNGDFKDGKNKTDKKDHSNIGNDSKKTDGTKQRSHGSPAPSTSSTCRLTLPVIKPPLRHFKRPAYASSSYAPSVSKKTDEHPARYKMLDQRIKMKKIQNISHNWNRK

| Compound | pIC50 (PDE1A) | inhibition at 10 µM (PDE1C) | pIC50 (PDE1B) | inhibition at 10 µM (PDE1A) | pIC50 (PDE1C) | inhibition at 10 µM (PDE1B; @ 10 μM compound, read-out: PDE1 B, % inhibition @ 10 μM) |
| --- | --- | --- | --- | --- | --- | --- |
| CC(C)n1ncc2nc(-c3cccnc3)cc(N[C@@H]3CCOC3)c21 [Example 25, 1-isopropyl-5-(3-pyridyl)-N-[(3R)-tetrahydrofuran-3-yl]pyrazolo[4,3-b]pyridin-7-amine] | 5.67 | 65% | 6.19 | – | – | – |
| COc1ncccc1-c1cc(N[C@@H]2CCOC2)c2c(cnn2C(C)C)n1 [Example 28, 1-isopropyl-5-(2-methoxy-3-pyridyl)-N-[(3R)-tetrahydrofuran-3-yl]pyrazolo[4,3-b]pyridin-7-amine] | 6.27 | – | 6.91 | – | 5.97 | – |
| COc1cnccc1-c1cc(N[C@@H]2CCOC2)c2c(cnn2C(C)C)n1 [Example 30, 1-isopropyl-5-(3-methoxy-4-pyridyl)-N-[(3R)-tetrahydrofuran-3-yl]pyrazolo[4,3-b]pyridin-7-amine] | 5.81 | – | 6.63 | – | 5.59 | – |
| COc1ccncc1-c1cc(N[C@@H]2CCOC2)c2c(cnn2C(C)C)n1 [Example 31, 1-isopropyl-5-(4-methoxy-3-pyridyl)-N-[(3R)-tetrahydrofuran-3-yl]pyrazolo[4,3-b]pyridin-7-amine] | – | 76% | 5.91 | 63% | – | – |
| CCOc1nccc(C)c1-c1cc(N[C@@H]2CCOC2)c2c(cnn2C(C)C)n1 [Example 34, 5-(2-ethoxy-4-methyl-3-pyridyl)-1-isopropyl-N-[(3R)-tetrahydrofuran-3-yl]pyrazolo[4,3-b]pyridin-7-amine] | 6.42 | – | 6.80 | – | 6.24 | – |
| CC(C)n1ncc2nc(-c3cccnc3OC(C)(C)C)cc(N[C@@H]3CCOC3)c21 [Example 36, 5-(2-tert-butoxy-3-pyridyl)-1-isopropyl-N-[(3R)-tetrahydrofuran-3-yl]pyrazolo[4,3-b]pyridin-7-amine] | 6.59 | – | 7.04 | – | 5.49 | – |
| COc1cccc(Cc2cc(N[C@@H]3CCOC3)c3c(cnn3C(C)C)n2)c1 [Example 37, 1-isopropyl-5-[(3-methoxyphenyl)methyl]-N-[(3R)-tetrahydrofuran-3-yl]pyrazolo[4,3-b]pyridin-7-amine] | – | – | 5.87 | 60% | 5.78 | – |
| COc1cccnc1-c1cc(N[C@@H]2CCOC2)c2c(cnn2C(C)C)n1 [Example 40, 1-isopropyl-5-(3-methoxy-2-pyridyl)-N-[(3R)-tetrahydrofuran-3-yl]pyrazolo[4,3-b]pyridin-7-amine] | – | 26% | 5.67 | 81% | – | – |
| CC(C)n1ncc2nc(-c3cccc4c3OCCO4)cc(N[C@@H]3CCOC3)c21 [Example 42, 5-(2,3-dihydro-1,4-benzodioxin-5-yl)-1-isopropyl-N-[(3R)-tetrahydrofuran-3-yl]pyrazolo[4,3-b]pyridin-7-amine] | 5.80 | 68% | 6.26 | – | – | – |
| CC(C)n1ncc2nc(Cc3ccc(F)cc3)cc(N[C@@H]3CCOC3)c21 [Example 43, 5-[(4-fluorophenyl)methyl]-1-isopropyl-N-[(3R)-tetrahydrofuran-3-yl]pyrazolo[4,3-b]pyridin-7-amine] | 5.54 | – | 5.91 | – | 6.21 | – |
| COc1ncncc1-c1cc(N[C@@H]2CCOC2)c2c(cnn2C(C)C)n1 [Example 49, 1-isopropyl-5-(4-methoxypyrimidin-5-yl)-N-[(3R)-tetrahydrofuran-3-yl]pyrazolo[4,3-b]pyridin-7-amine] | – | – | 5.57 | 43% | 5.73 | – |
| COc1cnc(C)c(-c2cc(N[C@@H]3CCOC3)c3c(cnn3C(C)C)n2)c1 [Example 51, 1-isopropyl-5-(5-methoxy-2-methyl-3-pyridyl)-N-[(3R)-tetrahydrofuran-3-yl]pyrazolo[4,3-b]pyridin-7-amine] | – | – | 5.49 | 20% | 5.41 | – |

Results, then the compound that gave them:

| pIC50 (PDE1A) | inhibition at 10 µM (PDE1C) | pIC50 (PDE1B) | inhibition at 10 µM (PDE1A) | pIC50 (PDE1C) | inhibition at 10 µM (PDE1B; @ 10 μM compound, read-out: PDE1 B, % inhibition @ 10 μM) | Compound |
| --- | --- | --- | --- | --- | --- | --- |
| 6.20 | 64% | 6.47 | – | – | – | CCCn1ncc2nc(-c3cccnc3OCC)cc(N3CCCC3)c21 [Example 18, 5-(2-ethoxy-3-pyridyl)-1-propyl-7-pyrrolidin-1-yl-pyrazolo[4,3-b]pyridine] |
| – | 70% | 5.44 | 54% | – | – | CC(C)n1ncc2nc(-c3cncnc3)cc(N[C@@H]3CCOC3)c21 [Example 26, 1-isopropyl-5-pyrimidin-5-yl-N-[(3R)-tetrahydrofuran-3-yl]pyrazolo[4,3-b]pyridin-7-amine] |
| 5.70 | – | 6.16 | – | 5.45 | – | CC(C)n1ncc2nc(-c3ccccc3)cc(N[C@@H]3CCOC3)c21 [Example 27, 1-isopropyl-5-phenyl-N-[(3R)-tetrahydrofuran-3-yl]pyrazolo[4,3-b]pyridin-7-amine] |
| – | 68% | 5.77 | 31% | – | – | COc1nc(C)ccc1-c1cc(N[C@@H]2CCOC2)c2c(cnn2C(C)C)n1 [Example 29, 1-isopropyl-5-(2-methoxy-6-methyl-3-pyridyl)-N-[(3R)-tetrahydrofuran-3-yl]pyrazolo[4,3-b]pyridin-7-amine] |
| 5.89 | – | 6.55 | – | 5.92 | – | CC(C)n1ncc2nc(-c3cccc4c3OCO4)cc(N[C@@H]3CCOC3)c21 [Example 32, 5-(1,3-benzodioxol-4-yl)-1-isopropyl-N-[(3R)-tetrahydrofuran-3-yl]pyrazolo[4,3-b]pyridin-7-amine] |
| – | 24% | – | 20% | – | 46% | CCOc1ccc(-c2cc(N[C@@H]3CCOC3)c3c(cnn3C(C)C)n2)cc1 [Example 33, 5-(4-ethoxyphenyl)-1-isopropyl-N-[(3R)-tetrahydrofuran-3-yl]pyrazolo[4,3-b]pyridin-7-amine] |
| 5.79 | – | 6.22 | – | 5.67 | – | CC(C)n1ncc2nc(-c3cnn4ccccc34)cc(N[C@@H]3CCOC3)c21 [Example 35, 1-isopropyl-5-pyrazolo[1,5-a]pyridin-3-yl-N-[(3R)-tetrahydrofuran-3-yl]pyrazolo[4,3-b]pyridin-7-amine] |
| 5.94 | – | 6.51 | – | 6.25 | – | COc1cc(-c2cc(N[C@@H]3CCOC3)c3c(cnn3C(C)C)n2)c(OC)cn1 [Example 38, 5-(2,5-dimethoxy-4-pyridyl)-1-isopropyl-N-[(3R)-tetrahydrofuran-3-yl]pyrazolo[4,3-b]pyridin-7-amine] |
| – | 59% | 5.72 | 61% | – | – | Cc1cccnc1-c1cc(N[C@@H]2CCOC2)c2c(cnn2C(C)C)n1 [Example 39, 1-isopropyl-5-(3-methyl-2-pyridyl)-N-[(3R)-tetrahydrofuran-3-yl]pyrazolo[4,3-b]pyridin-7-amine] |
| 6.02 | – | 6.61 | – | 5.77 | – | CC(C)n1ncc2nc(-c3ccccc3C#N)cc(N[C@@H]3CCOC3)c21 [Example 41, 2-[1-isopropyl-7-[[(3R)-tetrahydrofuran-3-yl]amino]pyrazolo[4,3-b]pyridin-5-yl]benzonitrile] |
| – | 47% | 5.40 | 33% | – | – | CC(C)n1ncc2nc(-c3cncc(C#N)c3)cc(N[C@@H]3CCOC3)c21 [Example 44, 5-[1-isopropyl-7-[[(3R)-tetrahydrofuran-3-yl]amino]pyrazolo[4,3-b]pyridin-5-yl]pyridine-3-carbonitrile] |
| 5.61 | 72% | 6.47 | – | – | – | COCc1cccc(-c2cc(N[C@@H]3CCOC3)c3c(cnn3C(C)C)n2)c1 [Example 45, 1-isopropyl-5-[3-(methoxymethyl)phenyl]-N-[(3R)-tetrahydrofuran-3-yl]pyrazolo[4,3-b]pyridin-7-amine] |
| 5.82 | – | 6.22 | – | 5.81 | – | COc1cncc(-c2cc(N[C@@H]3CCOC3)c3c(cnn3C(C)C)n2)c1 [Example 47, 1-isopropyl-5-(5-methoxy-3-pyridyl)-N-[(3R)-tetrahydrofuran-3-yl]pyrazolo[4,3-b]pyridin-7-amine] |
| 5.96 | – | 6.42 | – | 5.76 | – | CC(C)n1ncc2nc(-c3cccc(OC(F)F)c3)cc(N[C@@H]3CCOC3)c21 [Example 48, 5-[3-(difluoromethoxy)phenyl]-1-isopropyl-N-[(3R)-tetrahydrofuran-3-yl]pyrazolo[4,3-b]pyridin-7-amine] |
| – | – | 5.88 | 56% | 5.74 | – | COc1ncc(C)cc1-c1cc(N[C@@H]2CCOC2)c2c(cnn2C(C)C)n1 [Example 52, 1-isopropyl-5-(2-methoxy-5-methyl-3-pyridyl)-N-[(3R)-tetrahydrofuran-3-yl]pyrazolo[4,3-b]pyridin-7-amine] |
| – | 61% | 6.52 | 73% | – | – | CCOc1ccccc1-c1cc(N[C@@H]2CCOC2)c2c(cnn2C(C)C)n1 [Example 53, 5-(2-ethoxyphenyl)-1-isopropyl-N-[(3R)-tetrahydrofuran-3-yl]pyrazolo[4,3-b]pyridin-7-amine] |
